Reference: a melting point compilation (Tetko et al.)

Row | SMILES | melting point
1 | CC1=CCC(O)(C(C)C)CC1 (centres undefined) | 14.7 °C
2 | CCOC(=O)Nc1ccc2cc3ccc(NC)c(CO)c3nc2c1 | 145 °C
3 | CCCCCc1ccc(C(=O)O)cc1 | 85 to 90 °C
4 | COC(=O)CCC(C)C1CCC2C3C(OC(C)=O)CC4CC(=O)CCC4(C)C3CC(=O)C12C (centres undefined) | 165 to 167 °C
5 | COc1nsc(N)n1 | 172 to 173 °C
6 | N#CC(=NOCC1OCCO1)c1ccccc1 | 77.7 °C
7 | Clc1ccc2c(c1)Oc1cc(Cl)ccc1O2 | 151 °C
8 | CC1=CC(c2ccccc2)c2ccccc21 (centres undefined) | 61 °C
9 | OCCCc1ccccn1 | 34 °C
10 | c1ccc(C2CCCNC2)cc1 (centres undefined) | 14.5 °C
11 | COC(=O)c1ccno1 | 49 °C
12 | Nc1nc(O)nc(C23CC4CC(CC(C4)C2)C3)n1 | 340 °C
13 | CC1(C)C=[N+]([O-])C(C)(C)C=[N+]1[O-] | 298 to 300 °C
14 | O=C(O)c1ccc(C#Cc2ccccc2)o1 | 212 to 213 °C
15 | COc1ccc(/C=C(\C#N)c2nc(-c3ccco3)cs2)cc1 | 109 °C
16 | Cc1c(F)c(F)c(C(=O)O)c(F)c1F | 174 °C
17 | Cc1nn(C)c(Cl)c1C=O | 78 to 79 °C
18 | CC1CCC(C(C)C)C(OC(=O)C(C)O)C1 (single isomer, unassigned; (-)) | 40 °C
19 | COc1cc(C)nc(N)n1 | 161 °C
20 | Cc1ccc(C=CC(=O)O)cc1 | 198 to 201 °C
21 | FC(F)(F)C(F)(F)C(F)(F)C(F)(F)C(F)(F)C(F)(F)C(F)(F)C(F)(F)C(F)(F)C(F)(F)I | 66 °C
22 | CCCCCCCCSCCCCCCCC | 0.5 °C
23 | NC12c3ccccc3C(c3ccccc31)c1ccccc12 | 220 °C
24 | NN=C1c2ccccc2-c2ccccc21 | 152 °C
25 | O=C(O)c1ccc(-c2cccs2)cc1 | 240 to 244 °C
26 | Cc1c(Br)c(Br)c(Br)c(Br)c1Br | 288 °C

Row | SMILES | melting point
27 | O=C1[C@H]2Cc3ccccc3C[C@H]2C(=O)[C@@H]2Cc3ccccc3C[C@H]12 | 224 to 227 °C
28 | C/C(=C\C(=O)c1ccc(F)cc1)c1ccc(F)cc1 | 51 °C
29 | O=P(O)(O)Cc1ccccc1 | 169 °C
30 | Cc1cccc(O)c1C(=O)O | 173 °C
31 | CC12CCC(O)CC1CCC1C2CCC2(C)C(C3=CC(=O)OC3)CCC12O (centres undefined) | 253 °C
32 | OCC(F)(F)C(F)F | -15 °C
33 | O=C(NCCc1cc([N+](=O)[O-])c(CCNC(=O)c2ccccc2)c([N+](=O)[O-])c1)c1ccccc1 | 217 °C
34 | O=C(O)C1CCCC1C(=O)O (centres undefined) | 160 °C
35 | Nc1nnc(C2CCC2)[nH]1 | 153 to 155 °C
36 | c1ccc(CCCCc2ccccc2)cc1 | 52.5 °C
37 | Cc1nc(-c2ccc(CO)cc2)cs1 | 71 to 74 °C
38 | CCOC(=O)c1cnn(-c2ccc([N+](=O)[O-])cc2)c1N | 203 to 204 °C
39 | CC(=O)OC(c1ccccc1)C(Cl)(Cl)Cl (centres undefined) | 87.5 °C
40 | CC(=O)c1ccc(Cc2ccccc2)cc1 | 38 to 40 °C
41 | CC12CCC(C(Cl)C1=O)C2(C)C (centres undefined) | 106 °C
42 | CSc1nc(N)nc(C(C)(C)C)n1 | 102 to 104 °C
43 | COC(=O)c1ccc(CC(C#N)(Cc2ccc(C(=O)OC)cc2)c2ccc(CC(C)C)cc2)cc1 | 115 °C
44 | O=S(=O)(O)CS(=O)(=O)O | 98 °C
45 | C=C1C(=O)C23C(OC)CC4C5(C)CCCC4(COC5)C2C(O)CC1C3O (centres undefined) | 288 °C
46 | CCOc1cc2c(cc1OCC)C(C)=NCC2 | 68 to 71 °C
47 | CCOC(=O)c1cccc(-c2nccs2)c1 | 50 to 52 °C
48 | CCOC(=O)c1c(SC)nn(C(=O)c2ccc([N+](=O)[O-])cc2)c1N | 158 °C
49 | CCN(CC)C(=O)SCc1ccccc1Cl | 9 °C
50 | CCc1ccc([N+](=O)[O-])cc1 | -12 °C
51 | C[Si](C)(CCCC(=O)O)O[Si](C)(C)CCCC(=O)O | 47 °C
52 | CN(C=O)c1ccc(C(=O)O)cc1 | 217 to 221 °C

Row | SMILES | melting point
53 | Brc1cccc(Oc2ccc(Br)cc2Br)c1 | < 20 °C
54 | CCCCCCCCCCCCCCCCCC(=O)OCCC(C)C | 25.5 °C
55 | N#Cc1ncc(F)cc1F | 32 °C
56 | O=C1CC(c2ccc([N+](=O)[O-])cc2)=NN1c1ccccc1 | 189 °C
57 | c1cc(N2CCCC2)ccn1 | 56 °C
58 | CC(=O)C1=Cc2ccccc2C1 | 122 °C
59 | N#CCc1nc2ccccc2s1 | 102 °C
60 | CCCCCCN(CCCCCC)C(=O)COC(=O)c1ccccc1 | 162 °C
61 | CC(=O)Nc1ccc(C#N)cc1C(F)(F)F | 169 to 171 °C
62 | CC1(C)OC(C)(C(O)(c2cccc3ccccc23)c2cccc3ccccc23)CCC1C(=O)O (centres undefined) | 210 to 211 °C
63 | O=C(O)c1cc([N+](=O)[O-])ccc1Br | 180 °C
64 | NC(Cc1ccc(F)c(F)c1)C(=O)O (racemic) | 237 to 240 °C
65 | NC(=O)c1cccc(F)c1F | 116 °C
66 | COc1cc(S(C)=O)ccc1-c1nc2ncccc2[nH]1 (centres undefined) | 204 °C
67 | Nc1nc(-c2ccc(F)c(F)c2)cs1 | 116 to 117 °C
68 | Oc1cc(O)nc(S)n1 | 240 to 255 °C
69 | Nc1nc(F)nc2c1ncn2C1OC(CO)C(O)C1O (centres undefined) | 260 °C
70 | CC(=O)Oc1c(C)c(C)c2c(c1C)CCC(C)(CCCC(C)CCCC(C)CCCC(C)C)O2 (centres undefined) | -28 °C
71 | O=C1c2ccc(O)cc2C(=O)c2ccc(O)cc21 | 300 °C
72 | O=C1CCC(=O)N1CN1C(=O)C(=Cc2ccco2)SC1=S | 166 °C
73 | C=C(C)C(=O)OCC(C)C | -37 °C
74 | CC12CCC(O)CC1=CCC1C2CCC2(C)C1CCC2(O)C#CCl (centres undefined) | 175 to 177 °C
75 | c1ccc(C2CCc3ccccc3O2)cc1 (centres undefined) | 46.3 °C
76 | N#Cc1ccc(Oc2ccc(C(F)(F)F)cc2N)cc1 | 106 to 108 °C
77 | Nc1c(F)c(F)c(F)c(F)c1F | 35.5 °C
78 | O=Cc1coc2ccccc2c1=O | 151 to 155 °C

Row | SMILES | melting point
79 | O=C1CC(c2cccc(C3=NOC(=O)C3)c2)=NO1 | 190 °C
80 | Cc1cccc(NN=C2C(=O)N(C)C(=O)N(C)C2=O)c1 | 228 °C
81 | O=Cc1ccc(C=CC(=O)O)cc1 | 250 to 255 °C
82 | CCCC(=O)OC | -84.5 °C
83 | N#Cc1ccccc1N=C=S | 119 to 120 °C
84 | CCCCCCCCCCC(C)CC (centres undefined) | -38 °C
85 | N#CCc1c(Cl)cccc1Cl | 76 °C
86 | CCOP(=S)(OCC)SCn1c(=O)oc2cc(Cl)ccc21 | 47.8 °C
87 | O=C1Cc2ccc3ccccc3c21 | 97 °C
88 | c1ccc2c(c1)-c1ccccc1C2c1ccncc1 | 142 to 145 °C
89 | N#CC(=CNc1ccccn1)C(=O)c1ccccc1 | 153 to 154 °C
90 | CC(=O)Oc1c(-c2ccccn2)[nH]c2ccccc12 | 130 °C
91 | Cc1c(N)cc([N+](=O)[O-])cc1[N+](=O)[O-] | 174 °C
92 | Cc1cc(C)c([N+](=O)[O-])c(C)c1Br | 64 to 66 °C
93 | CC12CCC3C(C(=O)CC4CC(O)CCC43C)C1CCC2O (centres undefined) | 198 °C
94 | O=[N+]([O-])c1cc(S(=O)(=O)Cl)ccc1Cl | 60 °C
95 | S=c1oc2ccccc2n1CN1CCCCC1 | 255 °C
96 | OC1Cc2ccccc2C1 | 70 °C
97 | COS(=O)(=O)c1ccc([N+](=O)[O-])cc1 | 94 °C
98 | CCCCCCCCCCCCCCCc1ccccc1 | 22 °C
99 | Cc1nc(C)c(C=O)s1 | 30 °C
100 | ClCc1csc(-c2cccs2)n1 | 52 to 56 °C
101 | CC(=O)Oc1ccc(C2(c3ccc(OC(C)=O)cc3)C(=O)Nc3ccccc32)cc1 | 242 °C
102 | Cc1ccc(-c2csc(/C(C#N)=N\Nc3ccc(Cl)cc3)n2)cc1 | 172 °C
103 | Cc1cnc(N)c(Br)c1 | 72 °C
104 | CC(=O)c1ccc2c(c1)CCO2 | 62 to 64 °C

Row | SMILES | melting point
105 | Cc1nc2cc(O)ccc2s1 | 186 °C
106 | CCOC(=O)C1=C(NC(=O)c2ccco2)Oc2c(c(=O)oc3ccccc23)C1c1ccc(Br)cc1 (centres undefined) | 140 °C
107 | CC(=O)Nc1ccccc1CCN(CCc1ccccc1NC(C)=O)N=O | 172 °C
108 | NC(=O)CC(N)C(=O)O (centres undefined) | 234 °C
109 | CC(=O)Nc1ccc(C(C)=O)cc1Br | 140 °C
110 | CC(=Nc1c(O)ccc2ccccc12)c1c(O)c2ccccc2n(-c2ccccc2)c1=O | 219 °C
111 | O=C(C1=NOC2C(=O)N(c3cc(Cl)ccc3Cl)C(=O)C12)c1ccc([N+](=O)[O-])cc1 (centres undefined) | 216 °C
112 | Cc1ccc(C(=O)C=Cc2ccc(F)cc2)cc1 | 119 to 121 °C
113 | OCCCc1nc2ccccc2[nH]1 | 164 to 166 °C
114 | Cc1cc2cc(Cl)ccc2[nH]1 | 112 to 118 °C
115 | COC1CC2C3(C)CCCC2(COC3)C2C(OC(C)=O)CC3C(C)C(=O)C12C3O (centres undefined) | 165 °C
116 | C#CCCCCCC#C | -21 °C
117 | S=C=Nc1ccccc1I | 39 °C
118 | C=CCOC(=O)C=CC(=O)OCC=C | -47 °C
119 | O=C(c1ccc(C(=O)C(Cl)(Cl)Cl)cc1)C(Cl)Cl | 136 °C
120 | c1ccc(COc2ccc3cc[nH]c3c2)cc1 | 115 °C
121 | CNCC(O)c1ccccc1 (racemic) | 74 to 76 °C
122 | NS(=O)(=O)c1cccc([N+](=O)[O-])c1 | 167 °C
123 | O=S(=O)(O)C(F)(F)F | < 25 °C
124 | CCOC(=O)c1cc2cc3ccccc3cc2cc(C(=O)OCC)c1=O | 161 °C
125 | CC(C)(C)OC(=O)n1cc(C(=O)O)c2cc(Br)ccc21 | 206 to 209 °C
126 | Nc1cc(N)c(/C=C/c2ccccc2)c([N+](=O)[O-])c1C=Cc1ccccc1 | 175 °C
127 | Cn1[nH]c(N)c2c(=O)c(C(=O)O)cnc1-2 | 224 °C
128 | Cc1ccc([N+](=O)[O-])cc1N=C=O | 51 °C
129 | O=C1CCC(=O)N1I | 204 °C
